Experimental findings from patent publication US9296723B2, “NAMPT inhibitors” (AbbVie Inc., priority 2012, dated 2016) are described below.

In general, IC50 refers to the midpoint of a concentration-inhibition curve. A lower IC50 goes with greater potency.

Test [1] has as its target T1, NAMPT (Homo sapiens, UniProt P43490). Nature of the test: Time-Resolved Fluorescence Resonance Energy Transfer (TR-FRET) Binding Assay of NAMPT. Conditions: 6.8 nM NAMPT, 200 nM probe, equilibrated 3 hours, no substrates. The gist of the method: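 Compound was mixed with enzyme, probe and antibody and equilibrated 3 h at room temperature. TR-FRET read at Ex 337 nm, Em 520/495 nm. Ratios were normalized to controls and fitted to a four-parameter logistic equation for IC50.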
In general terms: TR-FRET usually uses a lanthanide donor and a delayed reading to cut background.

Test [2] addresses T1, NAMPT. Nature of the test: TR-FRET Binding Assay of NAMPT with PRPP. The following applies: 2 nM NAMPT, 2 nM probe, 200 µM PRPP and 2.5 mM ATP, equilibrated 16 hours. The gist of the method: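 TR-FRET probe displacement with 2 nM NAMPT, 2 nM probe and 1 nM Tb-anti-His antibody in the presence of 200 µM PRPP and 2.5 mM ATP, 2% DMSO (all final). Equilibrated 16 hours before reading to permit possible enzymatic modification of compounds.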

Another test concerns PC3 cells. Kind of test: NAMPT Cell Proliferation Assay (Cell Titer Glo). It counts as cell-based. The following applies: Homo sapiens, PC-3, 120 h, incubated 5 days, cell viability. In a few lines: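 PC3 cells (500/well, RPMI with 10% heat-inactivated FBS) were exposed to 10-fold compound dilutions from […] for 5 days at 37 °C, 5% CO2. Viability was read with Cell Titer Glo; IC50 from sigmoidal fit of percent inhibition.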

T1 sequence (P43490 whole entry): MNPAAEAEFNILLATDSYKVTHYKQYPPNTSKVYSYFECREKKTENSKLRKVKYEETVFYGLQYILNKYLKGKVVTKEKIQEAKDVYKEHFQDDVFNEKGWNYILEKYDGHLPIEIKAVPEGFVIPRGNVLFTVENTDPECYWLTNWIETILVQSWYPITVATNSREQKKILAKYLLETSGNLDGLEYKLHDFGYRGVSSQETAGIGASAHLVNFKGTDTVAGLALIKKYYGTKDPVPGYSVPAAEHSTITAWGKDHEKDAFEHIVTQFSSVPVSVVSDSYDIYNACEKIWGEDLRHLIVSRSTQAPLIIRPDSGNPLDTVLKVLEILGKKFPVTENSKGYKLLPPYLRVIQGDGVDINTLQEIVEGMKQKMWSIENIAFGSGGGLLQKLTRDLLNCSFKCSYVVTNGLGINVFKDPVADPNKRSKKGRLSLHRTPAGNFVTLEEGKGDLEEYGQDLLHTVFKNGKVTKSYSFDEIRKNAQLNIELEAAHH

`CC(C)(C)OC(=O)N1CC[C@H](Oc2ccc(NC(=O)N3CC(c4cccnc4)C3)cc2)C1` [Example 61, tert-butyl (3S)-3-[4-({[3-(pyridin-3-yl)azetidin-1-yl]carbonyl}amino)phenoxy]pyrrolidine-1-carboxylate]: the IC50 came to 20.9 nM at NAMPT [1], 0.31 nM at NAMPT [2] and 30.7 nM in the test on PC3 cells.
Taken in the same sequence, the figures for `CC(C)CN1CCC(c2ccc(NC(=O)N3CC(c4cccnc4)C3)cc2)CC1` [Example 235, N-{4-[1-(2-methylpropyl)piperidin-4-yl]phenyl}-3-(pyridin-3-yl)azetidine-1-carboxamide] were 649 nM, 0.213 nM and 993 nM.
As to `O=C(CC1CCOCC1)N1CCC(c2ccc(NC(=O)N3CC(c4cccnc4)C3)cc2)C1` (stereo not drawn) [Example 64, 3-(pyridin-3-yl)-N-{4-[1-(tetrahydro-2H-pyran-4-ylacetyl)pyrrolidin-3-yl]phenyl}azetidine-1-carboxamide], the IC50 on NAMPT [1] amounted to 52.1 nM; on NAMPT [2], 0.171 nM; in the test on PC3 cells, 71.1 nM.
Taken in the same sequence, the figures for `CC(C)(O)C(=O)N1CC(Oc2ccc(NC(=O)N3CC(c4cccnc4)C3)cc2)C1` [Example 30, N-(4-{[1-(2-hydroxy-2-methylpropanoyl)azetidin-3-yl]oxy}phenyl)-3-(pyridin-3-yl)azetidine-1-carboxamide] were 69.4 nM, 0.255 nM and 125 nM.
Taken in the same sequence, the figures for `O=C(Nc1ccc(O[C@@H]2CCN(C(=O)C3CC3)C2)cc1)N1CC(c2cccnc2)C1` [Example 85, N-(4-{[(3R)-1-(cyclopropylcarbonyl)pyrrolidin-3-yl]oxy}phenyl)-3-(pyridin-3-yl)azetidine-1-carboxamide] were 117 nM, 0.325 nM and 48.9 nM.
Taken in the same sequence, the figures for `CC(C)(C)C(=O)N1CC(Oc2ccc(NC(=O)N3CC(c4cccnc4)C3)cc2)C1` [Example 128, N-(4-{[1-(2,2-dimethylpropanoyl)azetidin-3-yl]oxy}phenyl)-3-(pyridin-3-yl)azetidine-1-carboxamide] were 30.4 nM, 0.519 nM and 8.36 nM.
Take `O=C(Nc1ccc(OC2CN(C(=O)C3CCCCC3)C2)cc1)N1CC(c2cccnc2)C1` [Example 139, N-(4-{[1-(cyclohexylcarbonyl)azetidin-3-yl]oxy}phenyl)-3-(pyridin-3-yl)azetidine-1-carboxamide]: the values for the IC50 on NAMPT [1], on NAMPT [2] and in the test on PC3 cells were 14.4 nM, 0.442 nM and 7.81 nM, respectively.
For the compound `O=C(Nc1ccc(C2CCN(C(=O)C3CCCCC3)CC2)cc1)N1CC(c2cccnc2)C1` [Example 177, N-{4-[1-(cyclohexylcarbonyl)piperidin-4-yl]phenyl}-3-(pyridin-3-yl)azetidine-1-carboxamide], the values for the half-maximal inhibitory concentration (IC50) at NAMPT [1], on NAMPT [2] and with PC3 cells were 15.8 nM, 0.304 nM and 74 nM, respectively.
Taken in the same sequence, the figures for `CCCCC(=O)N1CC(Oc2ccc(NC(=O)N3CC(c4cccnc4)C3)cc2)C1` [Example 117, N-{4-[(1-pentanoylazetidin-3-yl)oxy]phenyl}-3-(pyridin-3-yl)azetidine-1-carboxamide] were 18.8 nM, 0.327 nM and 9.83 nM.
Taken in the same sequence, the figures for `COCC(=O)N1CC(Oc2ccc(NC(=O)N3CC(c4cccnc4)C3)cc2)C1` [Example 120, N-(4-{[1-(methoxyacetyl)azetidin-3-yl]oxy}phenyl)-3-(pyridin-3-yl)azetidine-1-carboxamide] were 145 nM, 0.689 nM and 78 nM.
Taken in the same sequence, the figures for `O=C(Nc1ccc(O[C@@H]2CCN(C(=O)c3cccs3)C2)cc1)N1CC(c2cccnc2)C1` [Example 324, 3-(pyridin-3-yl)-N-(4-{[(3R)-1-(thiophen-2-ylcarbonyl)pyrrolidin-3-yl]oxy}phenyl)azetidine-1-carboxamide] were 20.7 nM, 0.36 nM and 6.24 nM.
